Values of other authors, collected in US11419878B2, “Medicine obtained by combining FXR agonist and ARB” (Intercept Pharmaceuticals, Inc., priority 2016, dated 2022).

Target: T1, FXR (Homo sapiens, UniProt Q96RI1)
T1 sequence (Q96RI1 1-486): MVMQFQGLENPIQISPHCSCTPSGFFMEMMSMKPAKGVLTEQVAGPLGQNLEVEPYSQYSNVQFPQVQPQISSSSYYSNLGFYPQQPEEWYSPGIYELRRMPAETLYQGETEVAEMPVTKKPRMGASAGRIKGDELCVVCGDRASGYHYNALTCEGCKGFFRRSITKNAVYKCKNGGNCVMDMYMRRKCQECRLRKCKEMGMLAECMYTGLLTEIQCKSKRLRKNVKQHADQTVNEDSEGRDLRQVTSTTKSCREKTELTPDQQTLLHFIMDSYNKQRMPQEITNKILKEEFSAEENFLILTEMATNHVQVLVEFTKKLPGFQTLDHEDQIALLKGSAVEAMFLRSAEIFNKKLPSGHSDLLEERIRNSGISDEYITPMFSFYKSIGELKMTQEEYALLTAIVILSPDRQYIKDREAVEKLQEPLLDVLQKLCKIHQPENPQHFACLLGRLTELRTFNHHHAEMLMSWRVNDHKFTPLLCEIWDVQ
Conditions: background statement; cited from earlier work

In the case of `CC[C@H]1[C@@H](O)[C@@H]2[C@H](CC[C@]3(C)[C@@H]([C@H](C)CCC(=O)O)CC[C@@H]23)[C@@]2(C)CC[C@@H](O)C[C@@H]12` [obeticholic acid, 3α,7α-dihydroxy-6α-ethyl-5β-cholan-24-oic acid], the “FXR agonist action / FXR-stimulating action” value is given as “strongest FXR-stimulating action among the semi synthetic alkylated bile acids”.
